Assay results: patent US5283255A, “Wavelength-specific cytotoxic agents” (The University of British Columbia, priority 1992, dated 1994)
“And” between values parts separate entries of the source, which are not always exact repeats. Identical values can stand only once. Like-named read-outs stand apart in the source and are kept apart here.

Assays:
[1] = type: in vitro ADME; details: human
Protocol: (§1) Franz in vitro percutaneous diffusion chambers were used to conduct studies of BPD formulations with oleic acid and oleyl alcohol vehicles (^14 C-BPD having a specific activity of 6 μCi was used). Excised split thickness (200 μ) human cadaver skin was mounted on the chamber (surface area 3 cm^2). The lower reservoir contained 4% bovine serum albumen in isotonic buffered saline, pH 7.0.
(§2) The chambers with the skin were equilibrated to 37° C. prior to application of the drug formulations. Formulations ([…] containing 1.67 μCi) were applied to the epidermal surface of the skin. The chamber was covered (occluded) to prevent evaporation, and the experiment was conducted in the dark.
(§3) Six diffusion cells were run for each time point (1.5 hr, 3 hr, 24 hr) for each formulation. Samples were removed from the dermal chamber at 1.5 hr, 3 hr and 24 hr. Cumulative penetration was assayed by liquid scintillation.
At the end of the respective time point, the surface of the skin was washed to remove surface drug. A 4 mm full thickness skin punch biopsy was taken from each specimen and processed for frozen section tissue fluorescence. This necessitates termination of flux measurements in that chamber. The stratum corneum was removed by 25 repetitive strippings with cellophane tape and counted in groups of five. The epidermis was heat-separated from the dermis by heating to 60° C. for 1 minute. These tissues were then digested and the ^14 C-BPD content of each of the skin compartments and reservoir was determined by liquid scintillation counting. (In the tables, "BPD-OA" and "BPD-OL" represent the BPD-oleic acid and BPD-oleyl alcohol formulations of the preceding example, "CH-014" represents ^14 C-labeled BPD-MA, and "phospholipid" represents a BPD-MA liposomal formulation.)

[2] = type: in vitro ADME, human
Protocol: as §1, §2, §3
At the end of the respective time point, the surface of the skin was washed to remove surface drug. A 4 mm full thickness skin punch biopsy was taken from each specimen and processed for frozen section tissue fluorescence. […] The stratum corneum was removed by 25 repetitive strippings with cellophane tape and counted in groups of five. […] These tissues were then digested and the ^14 C-BPD content of each of the skin compartments and reservoir was determined by liquid scintillation counting. […]

[3] = tested on: Human atherosclerotic iliofemoral arteries and aorta; test: In vitro human atherosclerotic tissue study, fluorescence microscopy
Protocol: Human atherosclerotic iliofemoral arteries and aorta were harvested and wrapped in saline-soaked gauze and then incubated for 2 hours at room temperature in MEM-Eagle's Medium and 10% fetal calf serum mixed with BPD-MA formulated at 30 μg/ml. The BPD was prepared by mixing 1 ml of BPD-MA stock solution with 8.1 ml MEM-Eagle's Medium and 0.9 ml fetal calf serum.
The sample was rinsed three times in cold normal saline, and the sections were examined by fluorescence microscopy to evaluate the uptake of BPD. The administered dose was finally diluted to provide solutions containing 0.5-200 μg/ml, and incubation time was varied.

in vivo = details: mouse, iv
Protocol: (§4) To determine biodegradability, tritiated BPD-MA was injected IV into P815 tumor-bearing mice. The mice were sacrificed at either 3 or 24 hours following injection and tumors, livers and kidneys were removed. The BPD-MA in these tissues was extracted and photoactivity was assessed in P815 target cells as described above in Example 1 under standard in vitro conditions.

target cells = test: In vitro evaluation of BPD-DA, -MA, -DB and -MB (as in Example 1); type: cell-based
Protocol: For the "affinity" assay, in the dark, 100 μl of the target cell suspension and 100 μl of the test or control compound were mixed. "Labeling" was allowed to continue for one hour at 4° C., and labeled cells were washed in the dark three times with 3 ml medium each time and resuspended in fresh medium. The resuspended cells were then subjected to light exposure at 300-750 nanometers for 30 minutes.
In a "direct" assay the target cells were irradiated immediately upon addition of the test or control compound.
The effect of irradiation was estimated using methods appropriate to the target cells.
The four compounds shown in FIG. 2, wherein R^1 and R^2 are carbomethoxy, were tested in vitro as described in Example 1.

[4] = tested on: warts caused by Papilloma virus; test: Systemic administration, papilloma-caused warts in rabbits; type: in vivo, rabbit; details: of 12 warts, 2 mg/kg IV
Protocol: Rabbits displaying warts caused by Papilloma virus were provided according to the model described by Shope et al., J. Exp. Med, (1933) 58:607-624. Five rabbits were administered Photofrin® II porfimer sodium intravenously at 10 mg/kg total dose over a ≤5 minute period beginning 24 hours before irradiation treatment. Six rabbits were administered BPD-MA intravenously at 2 mg/kg total dose over a ≤5 minute period beginning 2.5-3.5 hours before irradiation treatment. Warts were irradiated individually with no light, 150 J/cm^2 or 250 J/cm^2 using 630 nm for porfimer sodium and 690 nm for BPD-MA.

VSV = test: microbe, parasite or virus in culture; parameters: species or system Vesicular stomatitis virus; details: for log reduction at 1 µg/mL: read-out: virus kill, 1 μg/ml; for log reduction at 1000 µg/mL: read-out: virus kill, 1 mg/ml (so in the source)
skin = details: mouse, in vivo
Protocol: Mice bearing P815 tumors were shaved and injected with equivalent amounts of photosensitizer, and exposed to 72 Jo/cm^2 (80 mw/cm^2 -15 min-full spectrum) at various time intervals. Skin biopsies were taken at 24 and 48 hours after light irradiation and visual evaluations were made blind.

M-1 rhabdomycoscercoma = test: In vivo photosensitization, M-1 rhabdomyosarcoma system in DBA/J2 mice
Protocol: Studies of potential photosensitizers were performed using the M-1 rhabdomycoscercoma system in DBA/J2 mice. The compositions to be tested were diluted to a concentration of […] in PBS from a stock solution in DMSO at 8 mg/ml (except Photofrin® II, which was diluted directly from the clinical vial). […]

colon adenocarcinoma [5] = test: Detection of tumors by fluorescence in rats; details: 3.5 mg/kg IV; 3 h
P815 target cells = details: mouse, in vivo, iv
Protocol: as §4

colon adenocarcinoma [6] = details: rat, in vivo
atherosclerotic aortas = test: Rabbit studies of aorta, fluorescence microscopy; type: in vivo
Protocol: The rabbits were injected with BPD-MA at various dosages and time intervals prior to sacrifice. The rabbits were euthanized by injection and the entire descending aorta was removed, sectioned, and examined by fluorescence microscopy.

tumor cells = test: Alternate in vivo assay: kill of tumor cells from dosed mice (MTT); details: 180 min

## C=Cc1c(C)c2cc3nc(cc4[nH]c(cc5nc(cc1[nH]2)C(C)=C5CCC(=O)O)c(CCC(=O)OC)c4C)C1(C)C3=CC=C(C(=O)OC)C1C(=O)OC (stereo not drawn) [CH-014]
[1]; 90 min
  PERCENT RECOVERY, Dermis: .19 ± .06%
  PERCENT RECOVERY, Epidermis: .13 ± .13%
  PERCENT RECOVERY, Reservoir: 0%
[1]; 180 min
  PERCENT RECOVERY, Dermis: .32 ± .11%
  PERCENT RECOVERY, Epidermis: .06 ± .02%
  PERCENT RECOVERY, Reservoir: 0%
[1]; 1440 min
  PERCENT RECOVERY, Dermis: .40 ± .28%
  PERCENT RECOVERY, Epidermis: .06 ± .03%
  PERCENT RECOVERY, Reservoir: .014 ± .018%
[2]
  TISSUE FLUORESCENCE, Dermis: 1

## C=Cc1c(C)c2cc3nc(cc4[nH]c(cc5nc(cc1[nH]2)C(C)=C5CCC(=O)O)c(CCC(=O)OC)c4C)C1(C)C3=CC=C(C(=O)OC)C1C(=O)OC (stereo not drawn) [BPD-MA]
[3]; 10 μg/ml or less
  fluorescence for detection of plaques: did not provide sufficient fluorescence to detect the presence of plaques
[3]; 100 μg/ml and above
  fluorescence for detection of plaques: fluorescence was clearly seen
[3]; approximately 25 μg/ml
  fluorescence in plaqued areas: showed most intensely in the plaqued areas
  fluorescence in underlying arterial wall: no fluorescence was seen in the underlying arterial wall
In vivo
  remaining at 3 h: 100%
  remaining at 24 h: 39%
Target cells
  in vitro photosensitivity: somewhat more active
[4]; 150 J/cm^2, 690 nm
  warts completely regressed: 7
  warts showing >50% regression: 5
[4]; 250 J/cm^2, 690 nm
  warts showing complete cure: 12
VSV; 1, 2 and 4 μg/ml, 1 ml samples, 2 h before light
  relationship between total light energy and drug dose required to inactivate VSV: inverse relationship between total light energy and the drug dose required to inactivate the VSV
VSV; 2 and 4 μg/ml, 2 h dark incubation, 57.6 J/cm^2, 1 and 2 ml samples
  virus inactivation: complete virus inactivation
VSV; 0.5 hour to 1 hour, 1 μg/ml, 57.6 J/cm^2
  effect of increasing incubation time on VSV inactivation: improved VSV inactivation
VSV; Vesicular stomatitis virus, light or radiation study, 2 h, read-out: viral kill, 2 μg/ml, 1 ml, 2 h, 57.6 J/cm^2
  log reduction at 2 µg/mL: 7
VSV; Vesicular stomatitis virus, light or radiation study, 2 h, 28.8 J/cm^2
  log reduction at 1 µg/mL: 2
VSV; Vesicular stomatitis virus, light or radiation study, 2 h, 57.6 J/cm^2
  log reduction at 1 µg/mL: 5
VSV; Vesicular stomatitis virus, light or radiation study, 1 ml sample, 57.6 J/cm^2
  log reduction at 1000 µg/mL: 4
VSV; Vesicular stomatitis virus, light or radiation study, 2 ml sample, 57.6 J/cm^2
  log reduction at 1000 µg/mL: 2
VSV; room temperature, 37° C. or 4° C.
  effect of incubation temperature: little difference
VSV; to 2-3 hours, 1 μg/ml, 57.6 J/cm^2
  effect of further increasing incubation time on VSV inactivation: little effect
skin
  skin photosensitizing activity: major photosensitizing activity
  time dependence of skin photosensitizing activity: only present when light treatment was given 3 hours post drug administration
M-1 rhabdomycoscercoma; Table 6, 567 Jo/cm^2, IV 24 h before light
  Number of Days Tumor Free (PR): 9.2 days
M-1 rhabdomycoscercoma; Table 6, 567 Jo/cm^2, 8 animals per group
  Cures (tumor regressed and tumor-free for 30 days): 4
M-1 rhabdomycoscercoma; Table 7, light dose 378 To/cm^3
  Days Tumor-free: 13.2 days
M-1 rhabdomycoscercoma; Table 7, light dose 378 To/cm^3, 9-15 animals
  Number of Cures: 4
Colon adenocarcinoma [5]
  ratio of tumor exterior to muscle compared with HP: approximately the same as that for HP
P815 target cells
  degradation in liver and kidney compared with tumor tissue: both the liver and kidney degraded BPD more rapidly than did tumor tissue
Colon adenocarcinoma [6]
  drug-related signal over malignant tumor: BPD-MA-related signal increases over the malignant tumor
Atherosclerotic aortas; 30 μg/kg
  fluorescence in aorta tissue samples: No fluorescence was seen
Atherosclerotic aortas; 100 μg/kg
  fluorescence in normal aorta samples: no fluorescence was shown in the normal aorta samples
Atherosclerotic aortas; 100 μg/kg, two samples
  fluorescence in atherosclerotic samples: fluorescence was seen in the plaque but not the arterial wall
Tumor cells; 33 μg/mouse IV, light dose 5.7 Jo
  % Kill: 22.0%
Tumor cells; 40 μg/mouse IV, light dose 3.8 Jo
  % Kill: 32.5%
Tumor cells; 80 μg/mouse IV, light dose 3.8 Jo
  % Kill: 63.5 ± 2.1% and 53.7 ± 6.2%
